Values of other authors, collected in PMC9337769 (Science Advances, 2022).

Columns and labels:
[1] = system: PKA-C; details: substrate binding cooperativity of ligand-bound PKA-C
[2] = molecular target: PKA-C; details: inhibition of PKA-C; literature value

For `O=S(=O)(NCCNCC=Cc1ccc(Br)cc1)c1cccc2cnccc12` [H89, N-[2-(p-bromocinnamylamino)ethyl]-5-isoquinoline sulfonamide], the “K-type cooperativity (in words)” value [1] is given as “negative K-type cooperativity”.

For `Nc1ncnc2c1ncn2[C@@H]1O[C@H](COP(=O)(O)OP(=O)(O)CP(=O)(O)O)[C@@H](O)[C@H]1O` [adenosine 5′-(β,γ-methylene) triphosphate], the “K-type cooperativity (in words)” value [1] is listed as “lacks K-type cooperativity”.

In the case of `O=C(N[C@@H]1CNCCC[C@H]1OC(=O)c1cc(O)c(C(=O)c2c(O)cccc2C(=O)O)c(O)c1)c1ccc(O)cc1` [balanol], the Ki [2] is listed as about 4 nM.
